Laboratory results from patent US6841519B1, “Isoxazoline derivatives and herbicides containing the same as the active ingredient” (Kumiai Chemical Industry Co., Ltd., priority 1999, dated 2005).

Experiments:
Format in all cases: in vivo
[1] = tested on: Echinochloa oryzicola Vasing. (Eo); assay: Test for herbicidal effect by paddy field soil treatment (Test Example 1); conditions: application amount (active ingredient) 100 g/10 a, examined at the 21st day from the treatment, index per Table 40
Outline: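 Scored on a standard scale at day 21 in the greenhouse: herbicidal effect of wettable powder applied to flooded water (3 cm depth) at 100 g a.i./10 ares, one day after sowing Eo into puddled paddy soil.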

[2] = tested on: Setaria viridis (L.) Beauv. (Se); assay: Test for herbicidal effect by upland field soil treatment (Test Example 2), Se
Outline: (§1)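 Pre-emergence soil treatment: wettable powder diluted in water and sprayed on soil just sown with Ec and Se seeds, delivering 100 g active ingredient per 10 ares in 100 liters per 10 ares. Herbicidal effect was rated against a fixed scale 21 days later, after greenhouse growth.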

[3] = tested on: Echinochloa crus-galli (L.) Beauv. var. crusgalli (Ec); assay: Test for herbicidal effect by upland foliage treatment (Test Example 3); conditions: 100 g/10 a active ingredient, examined at 14th day
Outline: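 Scored 14 days post-spray against a graded standard: greenhouse-grown Ec, 2 weeks old in upland soil, received whole-foliage application of diluted wettable powder (100 g active ingredient per 10 ares, spray volume 100 L per 10 ares).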

[4] = tested on: Echinochloa crus-galli (L.) Beauv. var. crusgall (Ec); assay: Test for herbicidal effect by upland field soil treatment (Test Example 2), Ec
Outline: as §1

[5] = application amount (active ingredient) 100 g/10 a, examined at the 21st day from the treatment, index per Table 40
[6] = 100 g/10 a active ingredient, examined at 21st day

| SMILES | Herbicidal effect to Eo [1] | Herbicidal effect to Se [2, 5] | Herbicidal effect to Ec [3] | Herbicidal effect to Ec [4, 5] | Herbicidal effect to Se [2, 6] | Herbicidal effect to Ec [4, 6] |
| --- | --- | --- | --- | --- | --- | --- |
| CCC1(CC)CC([S+]([O-])Cc2c(F)cccc2F)=NO1 (centres unmarked) [Compound 1-363] | 5 (A herbicidal effect or phytotoxicity of 90% or more) | 4 (A herbicidal effect or phytotoxicity of 70% to less than 90%) | 4 (A herbicidal effect or phytotoxicity of 70% to less than 90%) | 5 (A herbicidal effect or phytotoxicity of 90% or more) | – | – |
| CCCOc1cccc(F)c1CS(=O)(=O)C1=NOC(C)(C)C1 [Compound 1-569] | 5 (A herbicidal effect or phytotoxicity of 90% or more) | – | 5 (A herbicidal effect or phytotoxicity of 90% or more) | – | 5 (A herbicidal effect or phytotoxicity of 90% or more) | 5 (A herbicidal effect or phytotoxicity of 90% or more) |
| CC1(C)CC(S(=O)(=O)Cc2c(F)cccc2C(F)(F)F)=NO1 [Compound 1-527] | 5 (A herbicidal effect or phytotoxicity of 90% or more) | – | 5 (A herbicidal effect or phytotoxicity of 90% or more) | – | 5 (A herbicidal effect or phytotoxicity of 90% or more) | 5 (A herbicidal effect or phytotoxicity of 90% or more) |
| CCOc1ccccc1CS(=O)(=O)C1=NOC(C)(C)C1 [Compound 1-43] | 5 (A herbicidal effect or phytotoxicity of 90% or more) | 5 (A herbicidal effect or phytotoxicity of 90% or more) | 5 (A herbicidal effect or phytotoxicity of 90% or more) | 5 (A herbicidal effect or phytotoxicity of 90% or more) | – | – |
| CCC1(C)CC(S(=O)(=O)Cc2c(F)cccc2F)=NO1 (centres unmarked) [Compound 1-200, 5-ethyl-3-(2,6-difluorobenzylsulfonyl)-5-methyl-2-isoxazoline] | 5 (A herbicidal effect or phytotoxicity of 90% or more) | 5 (A herbicidal effect or phytotoxicity of 90% or more) | 4 (A herbicidal effect or phytotoxicity of 70% to less than 90%) | 5 (A herbicidal effect or phytotoxicity of 90% or more) | – | – |
| CC(C)OC(=O)c1ccccc1CS(=O)(=O)C1=NOC(C)(C)C1 [Compound 1-595] | 5 (A herbicidal effect or phytotoxicity of 90% or more) | – | 4 (A herbicidal effect or phytotoxicity of 70% to less than 90%) | – | 5 (A herbicidal effect or phytotoxicity of 90% or more) | 5 (A herbicidal effect or phytotoxicity of 90% or more) |
| CC1(C)CC(S(=O)(=O)Cc2c(Cl)cccc2OC(F)F)=NO1 [Compound 1-561] | 5 (A herbicidal effect or phytotoxicity of 90% or more) | – | 4 (A herbicidal effect or phytotoxicity of 70% to less than 90%) | – | 5 (A herbicidal effect or phytotoxicity of 90% or more) | 5 (A herbicidal effect or phytotoxicity of 90% or more) |
| Cc1ccc(CS(=O)(=O)C2=NOC(C)(C)C2)cc1C [Compound 1-513] | 5 (A herbicidal effect or phytotoxicity of 90% or more) | – | 5 (A herbicidal effect or phytotoxicity of 90% or more) | – | 5 (A herbicidal effect or phytotoxicity of 90% or more) | 5 (A herbicidal effect or phytotoxicity of 90% or more) |
| CCOc1c(C)cccc1CS(=O)(=O)C1=NOC(C)(C)C1 [Compound 1-186] | 5 (A herbicidal effect or phytotoxicity of 90% or more) | 5 (A herbicidal effect or phytotoxicity of 90% or more) | 5 (A herbicidal effect or phytotoxicity of 90% or more) | 5 (A herbicidal effect or phytotoxicity of 90% or more) | – | – |
| CC1(C)CC(S(=O)(=O)Cc2c(Br)cccc2Br)=NO1 [Compound 1-554] | 5 (A herbicidal effect or phytotoxicity of 90% or more) | – | 5 (A herbicidal effect or phytotoxicity of 90% or more) | – | 5 (A herbicidal effect or phytotoxicity of 90% or more) | 5 (A herbicidal effect or phytotoxicity of 90% or more) |
| CC1(C)CC(S(=O)(=O)Cc2ccccc2[N+](=O)[O-])=NO1 [Compound 1-142] | 5 (A herbicidal effect or phytotoxicity of 90% or more) | 5 (A herbicidal effect or phytotoxicity of 90% or more) | 4 (A herbicidal effect or phytotoxicity of 70% to less than 90%) | 5 (A herbicidal effect or phytotoxicity of 90% or more) | – | – |
| CC1(C)CC(S(=O)(=O)Cc2cc(F)cc(F)c2)=NO1 [Compound 1-506] | 5 (A herbicidal effect or phytotoxicity of 90% or more) | – | 4 (A herbicidal effect or phytotoxicity of 70% to less than 90%) | – | 5 (A herbicidal effect or phytotoxicity of 90% or more) | 5 (A herbicidal effect or phytotoxicity of 90% or more) |
| CCC1(C)CC(S(=O)(=O)Cc2cccc(Cl)c2)=NO1 (centres unmarked) [Compound 1-193] | 5 (A herbicidal effect or phytotoxicity of 90% or more) | 4 (A herbicidal effect or phytotoxicity of 70% to less than 90%) | 5 (A herbicidal effect or phytotoxicity of 90% or more) | 5 (A herbicidal effect or phytotoxicity of 90% or more) | – | – |
| CCC1(C)CC(S(=O)(=O)Cc2ccccc2)=NO1 (centres unmarked) [Compound 1-188] | 5 (A herbicidal effect or phytotoxicity of 90% or more) | 5 (A herbicidal effect or phytotoxicity of 90% or more) | 4 (A herbicidal effect or phytotoxicity of 70% to less than 90%) | 5 (A herbicidal effect or phytotoxicity of 90% or more) | – | – |
| CC1(C)CC(S(=O)(=O)Cc2ccc(F)c(F)c2F)=NO1 [Compound 1-507] | 5 (A herbicidal effect or phytotoxicity of 90% or more) | – | 4 (A herbicidal effect or phytotoxicity of 70% to less than 90%) | – | 5 (A herbicidal effect or phytotoxicity of 90% or more) | 5 (A herbicidal effect or phytotoxicity of 90% or more) |
| CC(C)Oc1cccc(Cl)c1CS(=O)(=O)C1=NOC(C)(C)C1 [Compound 1-566] | 5 (A herbicidal effect or phytotoxicity of 90% or more) | – | 4 (A herbicidal effect or phytotoxicity of 70% to less than 90%) | – | 5 (A herbicidal effect or phytotoxicity of 90% or more) | 5 (A herbicidal effect or phytotoxicity of 90% or more) |
| CC1ON=C(S(=O)(=O)Cc2c(F)cccc2F)C1C (centres unmarked) [Compound 1-496] | 5 (A herbicidal effect or phytotoxicity of 90% or more) | 4 (A herbicidal effect or phytotoxicity of 70% to less than 90%) | 5 (A herbicidal effect or phytotoxicity of 90% or more) | 5 (A herbicidal effect or phytotoxicity of 90% or more) | – | – |
| Cc1ccc(F)c(CS(=O)(=O)C2=NOC(C)(C)C2)c1F [Compound 1-550] | 5 (A herbicidal effect or phytotoxicity of 90% or more) | – | 5 (A herbicidal effect or phytotoxicity of 90% or more) | – | 5 (A herbicidal effect or phytotoxicity of 90% or more) | 5 (A herbicidal effect or phytotoxicity of 90% or more) |
| CCC1(C)CC(S(=O)(=O)Cc2ccccc2C)=NO1 (centres unmarked) [Compound 1-201] | 5 (A herbicidal effect or phytotoxicity of 90% or more) | 5 (A herbicidal effect or phytotoxicity of 90% or more) | 5 (A herbicidal effect or phytotoxicity of 90% or more) | 5 (A herbicidal effect or phytotoxicity of 90% or more) | – | – |
| CC1(C)CC(S(=O)(=O)Cc2cc(F)c(F)cc2F)=NO1 [Compound 1-510] | 5 (A herbicidal effect or phytotoxicity of 90% or more) | – | 4 (A herbicidal effect or phytotoxicity of 70% to less than 90%) | – | 5 (A herbicidal effect or phytotoxicity of 90% or more) | 5 (A herbicidal effect or phytotoxicity of 90% or more) |
| C#CCOc1ccccc1CS(=O)(=O)C1=NOC(C)(C)C1 [Compound 1-559] | 5 (A herbicidal effect or phytotoxicity of 90% or more) | – | 5 (A herbicidal effect or phytotoxicity of 90% or more) | – | 5 (A herbicidal effect or phytotoxicity of 90% or more) | 5 (A herbicidal effect or phytotoxicity of 90% or more) |
| CC1(C)CC(S(=O)(=O)Cc2ccc(C(F)(F)F)cc2F)=NO1 [Compound 1-528] | 5 (A herbicidal effect or phytotoxicity of 90% or more) | – | 5 (A herbicidal effect or phytotoxicity of 90% or more) | – | 5 (A herbicidal effect or phytotoxicity of 90% or more) | 5 (A herbicidal effect or phytotoxicity of 90% or more) |
| CC1(C)CC(S(=O)(=O)Cc2cc(Cl)cc(Cl)c2)=NO1 [Compound 1-492] | 5 (A herbicidal effect or phytotoxicity of 90% or more) | 5 (A herbicidal effect or phytotoxicity of 90% or more) | 4 (A herbicidal effect or phytotoxicity of 70% to less than 90%) | 5 (A herbicidal effect or phytotoxicity of 90% or more) | – | – |
